Measurements from article PMC5642494 (Oncotarget, 2017).
Like-named read-outs stand apart in the source and are kept apart here.

Experiments:
MDA-MB-361 cells = assay: PI high content imaging of G1 arrest and cell proliferation, MDA-MB-361; assay type: cell-based; settings: Homo sapiens, at least 2 DT
Description: (§1) Relative IC50/EC50 values were determined by curve fitting to a four parameter logistic equation: Y = bottom + ((top-bottom)/ (1+exp(HillSlope*(X – LnIC50)), where X is the natural log of dose/concentration, Y is response, decreasing as X increases, top and bottom are plateaus in the same units as Y, lnIC50 is the natural log of potency, in the same log units as X, and HillSlope measures the steepness of the curve. Data were plotted using GraphPad Prism. […]
www.impactjournals.com/oncotarget/ Oncotarget Supplementary Materials
(§2) Preclinical characterization of abemaciclib in hormone receptor […]
Enzyme kinetics of CDK6/cyclin D3 complexes Cells were fixed with para-formaldehyde and Rb phosphorylation at Serine 780 was detected using CDK6/cyclin D3 activity was measured by the a primary mouse anti-Rb (PS780) antibody followed phosphorylation of CTRF using [g-33P] […] Plates were read in an kinase buffer containing 68 mM Hepes at pH 7.5, 6.67 mM Acumen Explorer eX3 (TTP Labtech). […] 10µL of CDK6/cyclin corresponding to 500-530 nm and the percentage of D3 enzyme complex (Millipore 14-519, #D13BP009NA) cells with pRb signal relative to the total PI stained (1 nM final concentration in the assay) was added onto subpopulation was calculated by the instrument’s software a mix of substrate and test compound. […]

EFM-19 cells = assay: PI high content imaging of G1 arrest and cell proliferation, EFM-19; assay type: cell-based; settings: Homo sapiens, at least 2 DT
Description: as §1, §2
METHODS High content imaging cell-based assays for monitoring phosphorylation of Rb (ser780), G1 arrest and […]
ATP at 20°C by a secondary goat anti-mouse IgG-Alexa Fluor 488 in a 96-well plate filtration assay format. […] Plates were read in an kinase buffer containing 68 mM Hepes at pH 7.5, 6.67 mM Acumen Explorer eX3 (TTP Labtech). […] 10µL of CDK6/cyclin corresponding to 500-530 nm and the percentage of D3 enzyme complex (Millipore 14-519, #D13BP009NA) cells with pRb signal relative to the total PI stained (1 nM final concentration in the assay) was added onto subpopulation was calculated by the instrument’s software a mix of substrate and test compound. […]
(EDTA) was used to determine the level of background evaluated by measuring PI signal using high content 33P in the absence of enzyme activity. […]

[1] = n = 2, read-out: IC50 2n (G1 arrest)
[2] = n = 2, read-out: IC50 Cell number

CCN1CCN(Cc2ccc(Nc3ncc(F)c(-c4cc(F)c5nc(C)n(C(C)C)c5c4)n3)nc2)CC1 [abemaciclib, Abemaciclib]
IC50 (MDA-MB-361 cells; [1]): 38 ± 2 nM | IC50 (MDA-MB-361 cells; [2]): 45 ± 14 nM | IC50 (EFM-19 cells; [1]): 32 ± 21 nM | IC50 (EFM-19 cells; [2]): 19 ± 4 nM
